Legend:
[1] = 101.3 kPa, Liquid; for viscosity: Concentric cylinders viscometry; for mass density: Vibrating tube method
[2] = xn = mol fraction of the nth substance listed; details: 101.3 kPa, Liquid, x2 = 0; for viscosity: Concentric cylinders viscometry; for mass density: Vibrating tube method

CCCCn1cc[n+](C)c1C.O=S(=O)([N-]S(=O)(=O)C(F)(F)F)C(F)(F)F
[1]
Details	mass density [kg/m3]	viscosity [mPa·s]
293.15 K	1423.1	133.6
298.15 K	1418.5	101.82
303.15 K	1413.9	79.23
308.15 K	1409.3	62.74
313.15 K	1404.8	50.56
318.15 K	1400.2	41.38
323.15 K	1395.6	34.32
328.15 K	1391	28.91

CCn1cc[n+](C)c1C.O=S(=O)([N-]S(=O)(=O)C(F)(F)F)C(F)(F)F
[1]
Details	mass density [kg/m3]	viscosity [mPa·s]
293.15 K	1495.8	89.88
298.15 K	1491	71.34
303.15 K	1486.3	57.64
308.15 K	1481.5	47.26
313.15 K	1476.7	39.24
318.15 K	1472	33
323.15 K	1467.2	28.05
328.15 K	1462.4	24.16

CCOC(=O)OCC [diethyl carbonate]
[1]
Details	mass density [kg/m3]	viscosity [mPa·s]
293.15 K	974.9	0.805
298.15 K	969.3	0.751
303.15 K	963.7	0.702
308.15 K	958	0.659
313.15 K	952.4	0.62
318.15 K	946.7	0.584
323.15 K	940.9	0.552
328.15 K	935.2	0.523

CCOC(=O)OCC [diethyl carbonate] + CCCCn1cc[n+](C)c1C.O=S(=O)([N-]S(=O)(=O)C(F)(F)F)C(F)(F)F
[2]
Details	mass density [kg/m3]	viscosity [mPa·s]
293.15 K	974.9	0.805
298.15 K	969.3	0.751
303.15 K	963.7	0.702
308.15 K	958	0.659
313.15 K	952.4	0.62
318.15 K	946.7	0.584
323.15 K	940.9	0.552
328.15 K	935.2	0.523

CCOC(=O)OCC [diethyl carbonate] + CCn1cc[n+](C)c1C.O=S(=O)([N-]S(=O)(=O)C(F)(F)F)C(F)(F)F
[2]
Details	mass density [kg/m3]	viscosity [mPa·s]
293.15 K	974.9	0.805
298.15 K	969.3	0.751
303.15 K	963.7	0.702
308.15 K	958	0.659
313.15 K	952.4	0.62
318.15 K	946.7	0.584
323.15 K	940.9	0.552
328.15 K	935.2	0.523

COC(=O)OC [dimethyl carbonate]
[1]
Details	mass density [kg/m3]	viscosity [mPa·s]
293.15 K	1069.7	0.629
298.15 K	1063.1	0.59
303.15 K	1056.4	0.555
308.15 K	1049.7	0.525
313.15 K	1043.1	0.495
318.15 K	1036.4	0.475
323.15 K	1029.6	0.446
328.15 K	1022.8	0.425

COC(=O)OC [dimethyl carbonate] + CCCCn1cc[n+](C)c1C.O=S(=O)([N-]S(=O)(=O)C(F)(F)F)C(F)(F)F
[2]
Details	mass density [kg/m3]	viscosity [mPa·s]
293.15 K	1069.7	0.629
298.15 K	1063.1	0.59
303.15 K	1056.4	0.555
308.15 K	1049.7	0.525
313.15 K	1043.1	0.495
318.15 K	1036.4	0.475
323.15 K	1029.6	0.446
328.15 K	1022.8	0.425

COC(=O)OC [dimethyl carbonate] + CCn1cc[n+](C)c1C.O=S(=O)([N-]S(=O)(=O)C(F)(F)F)C(F)(F)F
[2]
Details	mass density [kg/m3]	viscosity [mPa·s]
293.15 K	1069.7	0.629
298.15 K	1063.1	0.59
303.15 K	1056.4	0.555
308.15 K	1049.7	0.525
313.15 K	1043.1	0.495
318.15 K	1036.4	0.475
323.15 K	1029.6	0.446
328.15 K	1022.8	0.425

Source: the NIST ThermoML archive (doi:10.1016/j.jct.2018.10.015)
